These results are taken from BindingDB's records for doi:10.1021/jm034065z (Pfizer, 2003).

What is called IC50 is the concentration that inhibits the measured activity by half.

The assay deals with Aldo-keto reductase family 1 member B1 (Homo sapiens, UniProt P15121). Nature of the assay: In Vitro Aldose Reductase Inhibition Assay. The note with it: pH 7; 24 °C. As for the experimental part:
The activity of the enzyme was determined spectrophotometrically by monitoring the change in absorbance at 340 nm, which is due to the disappearance of NADPH. Inhibition by test compound was measured as the percentage decrease in the rate of NADPH oxidation as compared to a sample without test compound. The determination of the IC50 values was performed by using linear regression analysis of the log dose response curve.

On to `O=c1ccc(S(=O)(=O)c2cc3ccccc3o2)n[nH]1`, for which the IC50 came to 150 nM.
For `O=c1ccc(S(=O)(=O)c2cc3cc(Cl)ccc3o2)n[nH]1`, the IC50 came out at 25 nM.
